The conditions of data set [1]: 101.33 kPa, Liquid.
A short description of data set [2]: refractive index (Na D-line) (dimensionless). The settings on record: 101.33 kPa, Liquid, Standard Abbe refractometry.

± gives the expanded uncertainty stated by the source.

A word on the mass density: it is the mass of a sample divided by its volume. By refractive index is commonly meant a measure of how strongly the sample bends light. For the molecule `OCCO` [1,2-ethanediol], the mass density in data set [1] (293.15 K) was found to be 1115.52 ± 0.71 kg/m3. Moreover, in data set [2] (293.15 K), the refractive index stood at 1.43184 ± 0.0007.

In the case of `CC(O)CO` (configuration not stated) [1,2-propanediol], the mass density in data set [1] (293.15 K) was 1032.83 ± 0.48 kg/m3. Also, in data set [2] (293.15 K), the refractive index is reported as 1.43143 ± 0.0007.

Take `C=C(C)C1CC=C(C)CC1` (configuration not stated) [1-methyl-4-(1-methylethenyl)cyclohexene]: in data set [1] (294 K), the mass density worked out at 840.24 ± 2.8 kg/m3. The refractive index in data set [2] (292 K) worked out at 1.47247 ± 0.0009.

As to `C=CC(C)(O)CCC=C(C)C` (configuration not stated) [3,7-dimethyl-1,6-octadien-3-ol], the mass density in data set [1] (288 K) came out at 870.04 ± 2.7 kg/m3. Moreover, the refractive index in data set [2] (293.15 K) was 1.46272 ± 0.0009.

As to `OCCOCCO` [diethylene glycol], in data set [1] (288 K), the mass density was 1119.74 ± 0.72 kg/m3. Moreover, in data set [2] (293.15 K), the refractive index is 1.44724 ± 0.0007.

Take `OCCOCCOCCO` [triethylene glycol]: the mass density in data set [1] (288 K) was determined as 1127.43 ± 0.74 kg/m3. Also, the refractive index in data set [2] (293.15 K) is recorded as 1.45314 ± 0.0007.

(Values after the NIST ThermoML archive (doi:10.1021/je700577t).)
